Patent publication US5840750A, “Discodermolide compounds” (priority 1996, dated 1998)
pEC50, pIC50: −log10 of the molar value. Where two headings read alike, the source gives them in different places.

Experiments:
BMSC 8.3 = test: Constitutive proliferation of murine non-lymphoid BMSC 8.3 cells; assay type: cell-based
Source text: (§1) ^d Bone marrow stromal cells (MBSC) derived from CS7BL/6 mice.

tubulin [1] = test: Assembly of tubulin without MAPs or GTP; assay type: biochemical
Experimental: Discodermolide was analyzed for its interactions with tubulin. Tubulin polymerization was monitored turbidimetrically at 350 nm with an electronic temperature controller. Reaction mixtures contained 0.1M 4-morpholine-ethanesulfonate (pH 6.9), 1.0 mg/ml (10 μM) electrophoretically-homogenous bovine brain tubulin freed of unbound nucleotide by gel filtration, […], and 4% (v/v) dimethylsulfoxide. A concentration of 10 μM of discodermolide (curve 3) was compared with the same concentration of taxol (curve 2) and no drug (curve 1), as shown in FIG. 5.

tubulin [2] = test: Electron micrographs of polymers of tubulin; assay type: biochemical; settings: compared with control
F7 Fibroblast = test: Constitutive proliferation of murine non-lymphoid F7 fibroblasts; assay type: cell-based; settings: Mus musculus, best response
Source text: (§7) The effects of discodermolide on the inhibition of constitutive proliferation of a number of lymphoid and non-lymphoid cell lines of mouse or human origin was investigated.

EL-4 Thymoma = test: Constitutive proliferation of murine lymphoid EL-4 thymoma cells; assay type: cell-based; settings: Mus musculus; EL-4 Thymoma proliferation; best response
Source text: as §7

COLO 205 = test: NCI in vitro tumor cell line panel, LC50, colon cancer; assay type: cell-based; settings: human colon cancer (COLO 205)
Source text: (§2) Discodermolide was additionally evaluated for its anti-proliferative effects utilizing the National Cancer Institute's in vitro tumor cell line panel. The results of these analyses are shown in the mean graphs presented as FIGS. 1A-1K. The data are presented using known and accepted measurements of "Growth Inhibition-50" (GI50), where growth of 50% of the cells is inhibited; "Total Growth Inhibition" (TGI), where growth of all cells is inhibited, i.e., cytostasis; and "Lethal Concentration-50" (LC50), where 50% of the cells are killed.

HCC-2998 = test: as above; assay type: cell-based; settings: human colon cancer (HCC-2998)
Source text: as §2

Swiss 3TC = test: Constitutive proliferation of murine non-lymphoid Swiss 3TC cells; assay type: cell-based
Source text: as §7

BMSC 25.4 = test: Constitutive proliferation of murine non-lymphoid BMSC 25.4 cells; assay type: cell-based
Source text: as §1

[3] = system: GI-101A human breast cells; test: Cell cycle analysis of GI-101A human breast cells; assay type: cell-based; settings: 24 hours; for effect on cell cycle progression: GI-101A; for percentage of cells in G2 /M / percentage of S phase cells / percentage of cells in G1 phase: discodermolide 100 ng/ml; for percentage of cells in G2 /M: control 14%; for percentage of S phase cells: control 30%; for percentage of cells in G1 phase: control 56%
Experimental: (§3) Cell cycle studies were initiated in order to pinpoint a specific phase within the cell cycle in which discodermolide was exerting its antiproliferative effect. GI-101A human breast and A549 human lung cells were used as cell cycle targets to compare the effects of discodermolide and taxol on perturbation of the cell cycle. Cell cycle analyses were performed as follows: GI-101A and A549 cells were incubated at 37° C. in 10% CO2 in air in the presence or absence of varying concentrations of discodermolide or taxol (purchased from Molecular Probes, Eugene, Oreg.) for 48 hours. Cells were harvested, fixed in ethanol, and stained with 0.5 mg/ml of propidium iodide (P.I.) together with 0.1 mg/ml of RNase A. This procedure permeabilizes live cells and allows entry of P.I. to stain DNA. Stained preparations were analyzed on a Coulter EPICS ELITE with 488 nm excitation with the dead cells excluded by back-gating of P.I. preparations without detergent on forward and side scatter histograms. Fluorescence measurements and resulting DNA histograms were collected from at least 5,000 P.I. stained cells at an emission wavelength of 690 nm. Raw histogram data were further analyzed using a cell cycle analysis program (Multicycle, Phoenix Flow Systems).
Approximately 56% of the control cells comprise the G1 phase of the cell cycle, and 30% comprise the S phase. Only approximately 14% of cells are demonstrable in the G2 /M phase in asynchronous cultures at any one time mainly due to their high proliferative rate (FIG. 2A). At 24 hours post culture initiation with 100 ng/ml of discodermolide, the percentage of cells in G1 phase decreased to 22%. […] The percentage of cells in G1 decreased from 56% in the control to 27% in taxol-treated cultures.

[4] = system: murine lymphoid and non-lymphoid cell lines; test: Constitutive proliferation of murine lymphoid and non-lymphoid cell lines (summary); assay type: cell-based; settings: Mus musculus, read-out: IC50 values, range over murine cell lines
Source text: as §7

[5] = system: MCF-7 cells and MDA-MB-231 cells; test: Growth of human breast carcinoma cells; assay type: cell-based; settings: Breast carcinoma cell, results similar for both lines (MCF-7, MDA-MB-231)
Experimental: (§4) The effect of discodermolide on two human breast carcinoma cell lines, estrogen receptor positive MCF-7 cells, and estrogen receptor negative MDA-MB-231 cells, was determined. The results were compared with those obtained by treatment with taxol. Both lines were examined for drug effects on growth and by indirect immunofluorescence for effects on the microtubule cytoskeleton. The results were similar for both lines. […] These patterns appeared at concentrations as low as 10 nm.

SF 539 = test: NCI in vitro tumor cell line panel, LC50, CNS cancer; assay type: cell-based, human
Source text: as §2

SF 295 = test: as above; assay type: cell-based, human
Source text: as §2

NCI-H23 = test: NCI in vitro tumor cell line panel, LC50, non-small cell lung cancer; assay type: cell-based; settings: human non-small cell lung cancer (NCI-H23)
Source text: as §2

70Z/3 Pre-B = test: Constitutive proliferation of murine lymphoid 70Z/3 Pre-B cells; assay type: cell-based; settings: Mus musculus; 70Z/3 Pre-B proliferation; best response
Source text: as §7

bovine brain tubulin = test: Tubulin polymerization monitored turbidimetrically; assay type: biochemical; settings: for temperature at which tubulin polymerization/assembly began: 10 μM tubulin, MAPs, GTP, control 37° C.; for stability of assembly upon return of the mixture to 0° C.: control disassembled
Experimental: (§5) Discodermolide was analyzed for its interactions with tubulin. Tubulin polymerization was monitored turbidimetrically at 350 nm with an electronic temperature controller. Reaction mixtures contained 0.1M 4-morpholine-ethanesulfonate (pH 6.9), 1.0 mg/ml (10 μM) electrophoretically-homogenous bovine brain tubulin freed of unbound nucleotide by gel filtration, 0.5 mg/ml heat-treated MAPs, 100 μM GTP, and 4% (v/v) dimethylsulfoxide. A concentration of 10 μM of discodermolide (curve 3) was compared with the same concentration of taxol (curve 2) and no drug (curve 1), as shown in FIG. 5.

tubulin [6] = test: EC50 for the polymerization of tubulin; assay type: biochemical; settings: additional studies
Experimental: as §5

Normal Fibroblast = test: Constitutive proliferation of human non-lymphoid normal (foreskin) fibroblasts
[7] = as above; settings: human, foreskin fibroblasts
MDA-MB-435 = test: NCI in vitro tumor cell line panel, LC50, breast cancer; assay type: cell-based, human
Source text: as §2

MDA-N = test: as above; assay type: cell-based, human
Source text: as §2

A549 human lung cells = test: Cell cycle analysis of A549 human lung cells; assay type: cell-based; settings: 48 hours; for percentage of S phase cells (in words): control 19%; for percentage of cells in G2 /M / percentage of cells in G1: discodermolide 100 ng/ml; for percentage of cells in G2 /M: control 4%; for percentage of cells in G1: control 77%
Experimental: as §3
Discodermolide and taxol were compared for their effects on the proliferation of A549 human lung cells. Cell cultures were similarly initiated in the presence and absence of various concentrations of discodermolide or taxol and incubated at 37° C. in 10% CO2 in air for 48 hours. Cells were harvested and stained and analyzed on the flow cytometer as outlined above.

BMSC 8.6 = test: Constitutive proliferation of murine non-lymphoid BMSC 8.6 cells; assay type: cell-based
Source text: as §1

[8] = system: microtubule cytoskeleton in MCF-7 cells and MDA-MB-231 cells; test: Indirect immunofluorescence for effects on the microtubule cytoskeleton of human breast carcinoma cells; assay type: cell-based; settings: for minimal effective concentration: Homo sapiens, Breast carcinoma cell
Experimental: as §4

human tumor cell lines = test: National Cancer Institute's in vitro tumor cell line panel; assay type: cell-based
Source text: as §2

M14 = test: NCI in vitro tumor cell line panel, LC50, melanoma; assay type: cell-based; settings: human melanoma (M14)
Source text: as §2

[9] = system: Jurkat human leukemia cells; test: Cell cycle analysis of Jurkat human leukemia cells; assay type: cell-based; settings: 48 hours, discodermolide 100 ng/ml; for percentage of cells in G2 /M: control 7%; for percentage of S-phase cells: control 25%; for percentage of cells in G1: control 68%
Experimental: Discodermolide and taxol were compared for their effects on the proliferation of Jurkat human leukemia cells. Cell cultures were similarly initiated in the presence and absence of various concentrations of discodermolide or taxol and incubated at 37° C. in 10% CO2 in air for 48 hours. Cells were harvested and stained and analyzed on a flow cytometer using standard procedures. […] The percentage of S-phase cells in both groups increased from 25% in the control to 38% in both discodermolide- and taxol-treated cells.

microtubules = settings: literature; cited from earlier work
cancers = settings: clinical trials; cited from earlier work
A549 = A549 IC50 (biological activity of octahydrodiscodermolide compounds); assay type: cell-based, human
Experimental: (§6) The octahydrodiscodermolide compounds were tested for biological activity and the following results obtained: […]

P388 = P388 IC50 (biological activity of octahydrodiscodermolide compounds); assay type: cell-based
Experimental: as §6

C=C/C=C\C(C)C(OC(N)=O)C(C)C(O)C(C)C/C(C)=C\C(C)C(O)C(C)/C=C\C(O)CC1OC(=O)C(C)C(O)C1C (single isomer, unassigned) [discodermolide]
pIC50 (BMSC 8.3; Mus musculus, BMSC 8.3 proliferation, best response): 7.30
assembly of tubulin without MAPs or GTP (tubulin [1]): induced the assembly of tubulin
assembly reactions compared to taxol (tubulin [1]; especially at low temperatures): more dramatic compared to those observed with taxol
electron micrographs of polymers of tubulin (tubulin [2]): very similar characteristics, presence of polymers, microtubules, and sheets
pIC50 (F7 Fibroblast): 7.22
pIC50 (EL-4 Thymoma): 7.52
LC50 (in words) (COLO 205): particularly effective
LC50 (in words) (HCC-2998): particularly effective
pIC50 (Swiss 3TC; Mus musculus, Swiss 3TC proliferation, best response): 7.43
pIC50 (BMSC 25.4; Mus musculus, BMSC 25.4 proliferation, best response): 7.23
effect on cell cycle progression [3]: block at G2 /M phase of the cell cycle
percentage of cells in G2 /M [3]: 38%
percentage of S phase cells [3]: 41%
percentage of cells in G1 phase [3]: 22%
pIC50 [4]: 7.22 to 8.52
pIC50 [5]: 8.62
LC50 (in words) (SF 539): particularly effective
LC50 (in words) (SF 295): particularly effective
LC50 (in words) (NCI-H23): particularly effective
pIC50 (70Z/3 Pre-B): 8.52
extent of tubulin polymerization at 0° C. (bovine brain tubulin; 10 μM drug, 0° C.): almost complete
temperature at which tubulin polymerization/assembly began (bovine brain tubulin; 10 μM drug): 0 °C
stability of assembly upon return of the mixture to 0° C. (bovine brain tubulin; 10 μM drug): remained stable
mechanism of action in regard to stabilization of microtubules (bovine brain tubulin; compared to taxol): superior to that of taxol
pEC50 (tubulin [6]): 5.57
pIC50 (Normal Fibroblast; Homo sapiens, Fibroblast): 7.82
viable cell recovery (toxicity) (Normal Fibroblast; human foreskin fibroblast, concentrations up to 3.0 μM): not affected
CC50 [7]: > 3000 nM
LC50 (in words) (MDA-MB-435): particularly effective
LC50 (in words) (MDA-N): particularly effective
percentage of S phase cells (in words) (A549 human lung cells): did not change significantly
percentage of cells in G2 /M (A549 human lung cells): 67%
percentage of cells in G1 (A549 human lung cells): 18%
pIC50 (BMSC 8.6; Mus musculus, BMSC 8.6 proliferation, best response): 7.08
minimal effective concentration ([8]; read-out: concentration at which immunofluorescence patterns appeared): 0.01 µM
Immunofluorescence patterns ([8]; cellular microtubules): remarkable rearrangement of cellular microtubules
selective cytotoxicity, number of cell lines for GI50 (human tumor cell lines; approximately 60 cell lines tested, GI50): 32 cell lines
selective cytotoxicity, number of cell lines for TGI (human tumor cell lines; approximately 60 cell lines tested, TGI): 18 cell lines
cytotoxicity pattern (COMPARE algorithm) (human tumor cell lines; statistical analysis of selective toxicity pattern): matched that of several previously tested microtubule interactive agents, including the pattern generated by taxol
LC50 (in words) (M14): particularly effective
percentage of cells in G2 /M [9]: 27%
percentage of S-phase cells [9]: 38%
percentage of cells in G1 [9]: 35%

CC(=O)O[C@H]1C(=O)[C@@]2(C)[C@H]([C@H](OC(=O)c3ccccc3)[C@]3(O)C[C@H](OC(=O)[C@H](O)[C@@H](NC(=O)c4ccccc4)c4ccccc4)C(C)=C1C3(C)C)[C@]1(OC(C)=O)CO[C@@H]1C[C@@H]2O [taxol, reference compound]
electron micrographs of polymers of tubulin (tubulin [2]): very similar characteristics, presence of polymers, microtubules, and sheets; however, the taxol-inducedpolymers were somewhat longer than those induced with discodermolide
effect on microtubules (microtubules): stabilizes microtubules and inhibits their depolymerization to free tubulin
clinical effect (cancers): effective in the treatment of a wide range of cancers
effect on cell cycle progression [3]: block at G2 /M
percentage of cells in G2 /M [3]: 37%
percentage of S phase cells [3]: 37%
percentage of cells in G1 phase [3]: 27%
pIC50 [5]: 8.68
temperature at which tubulin polymerization/assembly began (bovine brain tubulin; 10 μM drug): 10 °C
stability of assembly upon return of the mixture to 0° C. (bovine brain tubulin; 10 μM drug): modest decline
pEC50 (tubulin [6]): 4.64
percentage of S phase cells (in words) (A549 human lung cells): did not change significantly
percentage of cells in G2 /M (A549 human lung cells): 77%
percentage of cells in G1 (A549 human lung cells): 11%
minimal effective concentration ([8]; only at much higher drug concentrations, read-out: concentration at which immunofluorescence changes occurred): 1 µM
percentage of cells in G2 /M [9]: 28%
percentage of S-phase cells [9]: 38%
percentage of cells in G1 [9]: 34%

Cyclosporin A [reference compound]
inhibition (Cyclosporin A) (BMSC 8.3; BMSC lines, up to 1 μg/ml): no
inhibition (Cyclosporin A) (Swiss 3TC; 3T3, up to 1 μg/ml): no
inhibition (Cyclosporin A) (BMSC 25.4; BMSC lines, up to 1 μg/ml): no
inhibition (Cyclosporin A) (Normal Fibroblast; human fibroblasts, up to 3 μM): no
inhibition (Cyclosporin A) (BMSC 8.6; BMSC lines, up to 1 μg/ml): no

octahydrodiscodermolide [20SG721]
IC50 (A549): 0.008 µg/mL
IC50 (P388): 0.02 µg/mL

octahydrodiscodermolide [20SG724]
IC50 (A549): > 5 µg/mL
IC50 (P388): 3.56 µg/mL
